Results on 1 molecule are retold here after PMC9964404, “Molecular Modeling and In Vitro Evaluation of Piplartine Analogs against Oral Squamous Cell Carcinoma” (Molecules, 2023).

Like-named read-outs stand apart in the source and are kept apart here. Some results are limits rather than exact numbers.

One series has as its system HEP G2 (hepatocarcinoma). Put plainly: MTT cell viability assay, HEP G2. In kind it is cell-based. The method, then:
(§1) SCC cells (SCC9 and SCC4), derived from human tongue OSCC, were obtained by (ATCC® CRL-1629 and CRL-1624) and maintained in DMEM/F12 1:1 medium (Dulbecco’s modified Eagle’s medium and Ham’s F12 medium, Gibco (Thermo Fisher, Waltham, MA, USA), supplemented with 10% (v/v) FBS (Fetal Bovine Serum; Invitrogen, Thermo Fisher, Waltham, MA, USA) and 400 ng/mL hydrocortisone (Sigma-AldrichCo., St. Louis, MO, USA). Primary normal gingival fibroblast human (PCS201 018TM) and other tumor cells B16-F10 (CRL-6475), Hep G2 (HB-8065), and HT-29 (HTB-38) were also obtained at ATCC and maintained in DMEM supplemented with 10% (v/v) FCS. Cells were cultured in a humidified environment containing 5% CO2 at 37 °C. […]
(§2) The viability of cancer cells and primary fibroblasts was tested using the MTT assay as described in MACHADO et al., 2021 [49]. […] Subsequently, the formazan crystals were dissolved by MTT solvent (50% Methanol and 50% DMSO), and the absorbance was read at 560 nm using the EPOCH microplate spectrophotometer (BioTekInstruments, Winooski, VT, USA).
(§3) IC50 values for the MTT assay were obtained by non-linear regression using GraphPad Prism 5.0 software (GraphPad, San Diego, CA, USA) from at least three independent experiments. […] The selectivity index was calculated as: S.I. = IC50 of the compound in fibroblasts/IC50 of the same compound in tumor cells.
In general terms: Tetrazolium dyes change colour on reduction, which living cells bring about.

Series [1] has as its system SCC9 cells. Put plainly: Cell cycle analysis (propidium iodide). Format: cell-based, human. The following applies: SCC9, 48 h. The method, then: (§4) To evaluate the action of the compound 9 on the cell cycle, cells of the SCC9 lineage were plated in a six-well plate (5 × 10^5 cells/well) as described in LUCENA et al., 2016. After 48h of treatment, cells were trypsinized and stained with propidium iodide (75 µM; Sigma) in the presence of NP-40 (Sigma). DNA content was analyzed by collecting 10,000 events using a FACScalibur flow cytometer. Data were analyzed using CellQuest (BD Biosciences) and FlowJo (Tree Star Inc., Ashland, OR, USA) software. (Version 9.9.4).

The next series deals with B16-F10 (melanoma). Put plainly: MTT cell viability assay, B16-F10. The following applies: Mus musculus. In kind it is cell-based. The method, then:
as §1, §2, §3

For series [2], the system named is Primary Gingival Fibroblast. Put plainly: MTT cell viability assay, normal fibroblasts. In kind it is cell-based, human. The following applies: Homo sapiens, Fibroblast, 48 h treatment. As to the method:
(§5) SCC cells (SCC9 and SCC4), derived from human tongue OSCC, were obtained by (ATCC® CRL-1629 and CRL-1624) and maintained in DMEM/F12 1:1 medium (Dulbecco’s modified Eagle’s medium and Ham’s F12 medium, Gibco (Thermo Fisher, Waltham, MA, USA), supplemented with 10% (v/v) FBS (Fetal Bovine Serum; Invitrogen, Thermo Fisher, Waltham, MA, USA) and 400 ng/mL hydrocortisone (Sigma-AldrichCo., St. Louis, MO, USA). Primary normal gingival fibroblast human (PCS201 018TM) and other tumor cells B16-F10 (CRL-6475), Hep G2 (HB-8065), and HT-29 (HTB-38) were also obtained at ATCC and maintained in DMEM supplemented with 10% (v/v) FCS. Cells were cultured in a humidified environment containing 5% CO2 at 37 °C. For all experiments, the compounds were solubilized in DMSO (Sigma-Aldrich) for a final concentration of 100 mM. From this dilution, other concentrations were made to carry out the cell viability assay. Carboplatin (Fauldcarbo®; Libbs Farmacêutica, São Paulo, SP, Brazil) was used as a control antitumor compound.
(§6) The viability of cancer cells and primary fibroblasts was tested using the MTT assay as described in MACHADO et al., 2021 [49]. Briefly, cancer cells (5 × 10^3 cells/well) were plated in duplicate in a 96-well plate, as indicated. DMSO was diluted in culture medium at the same concentrations and was used as a negative control, representing 100% cell viability. After 48 h of treatment, cells were incubated for 3.5 h with 5 mg/mL of MTT reagent (3,4,5-dimethiazol-2,5-diphenyltetrazoliumbromide) (Sigma-Aldrich Co., St. Louis, MO, USA) diluted in culture medium. Subsequently, the formazan crystals were dissolved by MTT solvent (50% Methanol and 50% DMSO), and the absorbance was read at 560 nm using the EPOCH microplate spectrophotometer (BioTekInstruments, Winooski, VT, USA).
(§7) IC50 values for the MTT assay were obtained by non-linear regression using GraphPad Prism 5.0 software (GraphPad, San Diego, CA, USA) from at least three independent experiments. Data are presented as means, ± standard deviation (SD). A log dose response (inhibitor) vs. response curve using the least square method was used to determine the IC50 and SD of the data. The selectivity index was calculated as: S.I. = IC50 of the compound in fibroblasts/IC50 of the same compound in tumor cells.

For a further series, the system named is mouse erythrocytes. Put plainly: Hemolytic activity in mouse erythrocytes. In kind it is cell-based. The conditions noted are these: mouse erythrocytes as printed.
The subject of series [3] is Oral Tumor Cells (SCC9, SCC4). Put plainly: MTT cell viability assay, average of OSCC lines SCC9 and SCC4. Format: cell-based, human. The following applies: Homo sapiens. The method, then:
as §5, §6, §3

The next series can be described thus: Hemolysis assay. In kind it is cell-based. The conditions noted are these: human erythrocytes. The method, then: Human blood was used as approved by the Research Ethics Committee of the Fluminense Federal University–Nova Friburgo, RJ (CAAE: 43134721.4.0000.5626). The erythrocytes were collected by centrifugation at 1500 rpm for 15 min, washed with PBS (phosphate buffer saline) and 10 mM glucose, and counted in an automatic cells counter (Thermo Fisher, Waltham, MA, USA). The erythrocytes were then plated in 96-well plates at a concentration of 4 × 10^8/well in triplicate, and 10 µL of the compounds were added at a final concentration of 1000 µM in PBS with glucose (final volume of 100 µL). Ten microliters of PBS were used as negative control and 10 µL of PBS with 0.1% Triton ×100 as a positive control. Data reading was performed with EPOCH (BioTek Instruments, Winooski, VT, USA) at 540 nm absorbance, and statistical data were generated with the GRAPHPAD Prism 5.0 program (Intuitive Software for Science, San Diego, CA, USA).

Series [4] relates to SCC9 cells. Put plainly: Caspase 3/7 analysis (flow cytometry). In kind it is cell-based, human. The conditions noted are these: SCC9, 2 × IC50, 48 h. The method, then: For active caspase detection, 5 × 10^4 SCC9 cells were plated in a 24-well plate containing 1 mL of DMEM/F12 with 10% FBS per well. CellEvent™ Caspase-3/7 reagent (#R37111, Invitrogen) was diluted in culture medium according to the manufacturer’s instructions. Twenty-four hours after plating, cells were treated with Caspase-3/7 reagent and 2× IC50 of 9 or DMSO as a control. Cells were analyzed by flow cytometry after 48 h of treatment.
(A flow cytometer gives signals particle by particle.)

For series [5], the system named is HT-29 (colon adenocarcinoma). Put plainly: MTT cell viability assay, HT-29. Format: cell-based. As to the method: as §1, §2, §3
Series [6] relates to SCC9 cells. Put plainly: Phosphatidylserine exposure analysis (annexin V-FITC / P.I., flow cytometry). Format: cell-based, human. The conditions noted are these: SCC9, 48 h. As to the method: Cells of the SCC9 cell line were plated in six-well plates (5 × 10^5 cells/well), trypsinized 48 h after treatment, labeled using the Annexin V-FITC Apoptosis Detection Kit according to the manufacturer’s protocol (#BMS500FI/300, Invitrogen), and analyzed by flow cytometry.

The next series relates to SCC4 cells. Put plainly: MTT cell viability assay, SCC4. In kind it is cell-based, human. The following applies: Homo sapiens, SCC-4, 48 h treatment, read-out: SCC4 IC50. The method, then: as §5, §6, §7
The test system of series [7] is SCC9 cells. Put plainly: MTT cell viability (cytotoxicity) assay, SCC9. Format: cell-based, human. The conditions noted are these: Homo sapiens. The method, then:
as §5, §6, §7

For series [8], the system named is SCC9 cells. Put plainly: SubG1 analysis (propidium iodide DNA content). The conditions noted are these: SCC9, 48 h. Format: cell-based, human. The method, then: as §4

For `COc1ccc(COC(=O)c2cc(OC)c(OC)c(OC)c2)cc1` [Compound 9, 4-Methoxy-benzyl 3,4,5–trimethoxybenzoate], the IC50 was 6.63 µM in the series with HEP G2 (hepatocarcinoma) (HEP G2); below 10 µM in the series on HEP G2 (hepatocarcinoma) (Homo sapiens, HepG2, HEP G2); 73.3 µM in the series with B16-F10 (melanoma); 741 µM in series [2] (read-out: Primary Gingival Fibroblast IC50); 246 µg/mL in series [2] (read-out: Primary Gingival Fibroblast IC50 (µg/mL)); 48 µM in series [3]. Moreover, the IC50 in [5] (HT-29) is 7.31 µM; in series [5] (Homo sapiens, HT-29, HT-29), below 10 µM; with SCC4 cells it was 49.8 µM; in the series with SCC9 cells [7] (SCC-9, 48 h, read-out: SCC9 IC50 (µg/mL)), 15.4 µg/mL; in the series with SCC9 cells [7] (SCC-9, 48 h treatment, MTT, read-out: SCC9 IC50), 46.2 µM. Moreover, the “Cycle Phase % G2/M” value in the series on SCC9 cells [1] was ~ 59%. Also, in the series on mouse erythrocytes, the hemolytic activity result is reported as “did not reveal hemolytic activity”. The hemolysis at 1000 µM in “Hemolysis assay” was below 1%. For the same molecule, the “Active caspase 3/7” value in the series with SCC9 cells [4] is ~ 66%. Besides, the “annexin V single- and/or double-positive (PI+) labeling” value in the series on SCC9 cells [6] is listed as ~ 17%. The “increase in annexin V labeling versus control” value in the series with SCC9 cells [6] is “four-fold increase”. Moreover, the “DNA fragmentation (SubG1 DNA content)” value in the series on SCC9 cells [8] is reported as ~ 21%.
